Common to all, as to test: growth of human tumour cells (NCI), 48 h
Test [1] concerns SNB-19 CNS.
Test [2] deals with HS 578T breast.
Test [3] concerns NCI/ADR-RES ovarian.
Test [4] relates to DU-145 prostate.
The subject of test [5] is HOP-62 NSCLC.
Test [6] has as its system PC-3 prostate.
The test system of test [7] is ACHN renal.
Test [8] relates to SN12C renal.

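These data come from cells grown in 96-well plates and exposed to compound for 48 hours at five concentrations. At the GI50, growth is halved. The concentration for full growth arrest is given as TGI.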 Where a SMILES comes first, the peptide text is derived from it. [ ]: non-standard residue; d: D form. The star is where a group is joined. β3hI = CC[CH](C)[CH](N)CC(=O)O; Octanoyl = CCCCCCCC(=O)*; Aib = CC(C)(N)C(=O)O; tBu = CC(C)(C)*

Regarding `CCCCCCCC(=O)NC(C)(C)C(=O)NC(COC(C)(C)C)C(=O)NC(CC(C)C)C(=O)NC(C)(C)C(=O)NC(COC(C)(C)C)C(=O)NC(COC(C)(C)C)C(=O)NC(CC(C)C)C(=O)NC(C)(C)C(=O)NC(COC(C)(C)C)C(=O)NC(C(=O)NC(CC(C)C)C(=O)OC)C(C)CC` (configuration not stated) (Octanoyl-[Aib]S(tBu)L[Aib]S(tBu)S(tBu)L[Aib]S(tBu)IL-OMe; configuration not given here), the TGI in test [1] is above 25 µM; in test [2], above 25 µM; in test [3], above 25 µM; in test [4], above 25 µM; in test [5], above 25 µM; in test [6] it was 9.36 µM. The TGI in test [7] amounted to 20.8 µM; in test [8] it was 24.9 µM.
In the case of `O=c1oc2ccc3ccccc3c2cc1-c1nc2ccccc2o1`, the TGI is above 46.6 µM in test [1]; above 68.8 µM in test [2]; 51.7 µM in test [3]; above 52.3 µM in test [4]; above 52.1 µM in test [5]; above 74.9 µM in test [6]. Besides, the TGI in test [7] is 29.9 µM; in test [8], above 64.1 µM.
Consider `CNC(=O)CCCN(C)C(=O)CCCCC(=O)N(C)C`, for which the TGI in test [1], in test [2], in test [3], in test [4], in test [5] and in test [6] was above 100 µM throughout. Besides, the TGI in test [7] and in test [8] was above 100 µM each time.
Turning to `O=C(CCCl)NNC1=NCCN1`, the TGI in test [1], in test [2], in test [3], in test [4], in test [5] and in test [6] was above 100 µM in each case. Also, the TGI in test [7] and in test [8] was above 100 µM each time.
As for `CCCCn1c2c(n(CCCC)c1=S)-c1c(n(CCCC)c(=S)n1CCCC)SSSS2`, the TGI in test [1] was above 100 µM; in test [2], 46.3 µM; in test [3], 71.5 µM; in test [4] it was above 35.3 µM; in test [5] it was 36.6 µM; in test [6], 7.24 µM. The TGI came out at 7 µM in test [7] and 14.7 µM in test [8].
Take `CC(C)(C)C(=O)C(C(c1ccccc1)N1CCOCC1)N1CCOCC1` (configuration not stated): the TGI in test [1], in test [2], in test [3], in test [4], in test [5] and in test [6] was above 100 µM throughout. Besides, the TGI in test [7] and in test [8] was above 100 µM throughout.
Turning to `Cn1c2ccccc2c(=NNc2ccccc2C(=O)O)c2ccccc21`, the TGI in test [1] was above 100 µM; in test [2] it was 83.1 µM; in test [3], 60.8 µM; in test [4], above 100 µM; in test [5], 75.4 µM; in test [6], 42.3 µM. Further, the figures for the TGI in test [7] and in test [8] were 48.2 µM and 83.1 µM, respectively.
With `CCC(C)C(CC(=O)N1CCCC1C(=O)NC(C(=O)NC(C(=O)NCC(=O)NC(CC(N)=O)C(=O)NC(C(=O)NC(C(=O)NC(CCCCN)C(N)=O)C(C)CC)C(C)CC)C(C)C)C(C)CC)NC(=O)C(N)C(C)CC` (stereo not drawn) (H-I[β3hI]PIVGNIIK-NH2; configuration not given here), the TGI in test [1], in test [2], in test [3], in test [4], in test [5] and in test [6] was above 50 µM in each case. Further, the TGI in test [7] and in test [8] was above 50 µM throughout.
As to `COC(=O)CCn1cnc2c(SC)ncnc21`, the TGI in test [1], in test [2], in test [3], in test [4], in test [5] and in test [6] was above 100 µM in each case. The TGI in test [7] and in test [8] was above 100 µM each time.
As for `O=c1[nH]nc(Cc2ccc(Cl)cc2)n1/N=C\c1ccc(/C=N/n2c(Cc3ccc(Cl)cc3)n[nH]c2=O)cc1`, the TGI in test [1] is above 100 µM; in test [2], above 100 µM; in test [3], above 100 µM; in test [4], above 100 µM; in test [5], 57.5 µM; in test [6] it was above 100 µM. Further, the TGI in test [7] and in test [8] was above 100 µM throughout.
For the compound `CC1(C)CN=C(Nc2cccc(C(F)(F)F)c2)S1`, the TGI in test [1], in test [2], in test [3], in test [4], in test [5] and in test [6] was above 100 µM throughout. Also, the TGI in test [7] and in test [8] was above 100 µM each time.
In the case of `NCCCN1CCN(CC(=O)O)CCN(CCCN)CCN(CC(=O)O)CC1`, the TGI in test [1], in test [2], in test [3], in test [4], in test [5] and in test [6] was above 100 µM throughout. Moreover, the TGI in test [7] and in test [8] was above 100 µM throughout.
Turning to `O=[N+]([O-])c1cc(Cl)cc2cc(Cl)cnc12`, the TGI in test [1], in test [2], in test [3], in test [4], in test [5] and in test [6] was above 100 µM throughout. Moreover, the TGI in test [7] and in test [8] was above 100 µM in each case.
Take `CC(CO)C1=CC(C#CCOCc2ccccc2)N(C(=O)Oc2ccccc2)c2ccccc21` (configuration not stated): the TGI is above 100 µM in test [1]; 53.5 µM in test [2]; 63.3 µM in test [3]; above 100 µM in test [4]; above 100 µM in test [5]; above 100 µM in test [6]. In addition, the TGI came to 36.3 µM in test [7] and 68.6 µM in test [8].
`CC(=O)OCC1OC(n2c(N)c(C#N)c(-c3ccc(C)cc3)c(C#N)c2=S)C(OC(C)=O)C(OC(C)=O)C1OC(C)=O` (configuration not stated): the TGI in test [1] is 34.8 µM; in test [2], 38.7 µM; in test [3], 91.9 µM; in test [4] it was 28.7 µM; in test [5], 47.2 µM; in test [6], above 100 µM. Moreover, the values for the TGI in test [7] and in test [8] were above 100 µM and 41 µM, respectively.
On to `CCOC(=O)CCC(NC(=O)c1ccc(Nc2nc3ccccc3nc2-c2cccs2)cc1)C(=O)OCC` (configuration not stated), for which the TGI in test [1], in test [2], in test [3], in test [4], in test [5] and in test [6] was above 100 µM in each case. Besides, the TGI in test [7] and in test [8] was above 100 µM each time.
`Cc1cccc(-c2cc(=S)c3cc(N4CCCC4)ccc3[nH]2)c1`: the TGI in test [1], in test [2], in test [3], in test [4], in test [5] and in test [6] was above 100 µM throughout. Moreover, the TGI in test [7] and in test [8] was above 100 µM throughout.
On to `CC(=O)Oc1cc2c(cc1OC(C)=O)[C@H]1CC[C@]3(C)[C@@H](OC(C)=O)CC[C@H]3[C@@H]1CC2`, for which the TGI was found to be 21.7 µM in test [1]; 25.2 µM in test [2]; 29.5 µM in test [3]; 38.9 µM in test [4]; 26.7 µM in test [5]; 25.5 µM in test [6]. For the same compound, the TGI was 16.5 µM in test [7] and 20.4 µM in test [8]. Further, the GI50 in test [5] is 4.81 µM; in test [8], 5.06 µM.
In the case of `NC1=NNC2(C(N)=N1)c1ccccc1-c1ccccc12`, the TGI in test [1], in test [2], in test [3], in test [4], in test [5] and in test [6] was above 10 µM in each case. The TGI in test [7] and in test [8] was above 10 µM each time.
For `c1cncc(-c2ncc3cccnc3n2)c1`, the TGI in test [1], in test [2], in test [3], in test [4], in test [5] and in test [6] was above 100 µM in each case. In addition, the TGI in test [7] and in test [8] was above 100 µM each time.
`O=c1ccn2n1CCCCC2`: the TGI in test [1], in test [2], in test [3], in test [4], in test [5] and in test [6] was above 100 µM in each case. Also, the TGI in test [7] and in test [8] was above 100 µM in each case.
Regarding `COc1ccc(/C=C/C(=O)N[C@@H]2C(=O)N3[C@@H]2SC(C)(C)[C@@H]3C(=O)O)cc1`, the TGI in test [1], in test [2], in test [3], in test [4], in test [5] and in test [6] was above 100 µM in each case. The TGI in test [7] and in test [8] was above 100 µM throughout.
Consider `N#CCCN(CCC#N)c1ccc(/C=C2\N=C(c3ccccc3)N(c3ccccn3)C2=O)cc1`, for which the TGI in test [1], in test [2], in test [3], in test [4], in test [5] and in test [6] was above 100 µM throughout. The TGI in test [7] and in test [8] was above 100 µM throughout.
Consider `O=C(O)c1ccc(C(c2c(O)c3ccccc3oc2=O)c2c(O)c3ccccc3oc2=O)cc1`, for which the TGI is above 100 µM in test [1]; 62.7 µM in test [2]; above 100 µM in test [3]; above 100 µM in test [4]; above 100 µM in test [5]; above 100 µM in test [6]. Further, the TGI in test [7] and in test [8] was above 100 µM throughout.
Take `Cc1c2c(n(Cc3ccccn3)c1C)NN=C(C#N)S2(=O)=O`: the TGI in test [1], in test [2], in test [3], in test [4], in test [5] and in test [6] was above 100 µM each time. Besides, the TGI in test [7] and in test [8] was above 100 µM throughout.
With `Cc1cc(C)c2c(=O)n(CN3CCC(O)(c4ccccc4)CC3)sc2n1`, the TGI in test [1], in test [2], in test [3], in test [4], in test [5] and in test [6] was above 100 µM each time. Further, the TGI in test [7] stood at 37.9 µM; in test [8], 86.2 µM.
Take `N#CC1=C(N)OC(c2ccc([N+](=O)[O-])cc2)C1(C#N)C#N` (configuration not stated): the TGI in test [1] was above 53.2 µM; in test [2] it was 64.9 µM; in test [3], 51.7 µM; in test [4], 32.1 µM; in test [5] it was above 53 µM; in test [6], 34.7 µM. Also, the TGI was 23.8 µM in test [7] and 32.2 µM in test [8].
Turning to `COc1cc([C@@H]2c3[nH]c4ccccc4c3C(Nc3ccc([N+](=O)[O-])cc3)[C@H]3COC(=O)N23)cc(OC)c1O` (some centres not stated), the TGI in test [1] was 0.698 µM; in test [2], 2.79 µM; in test [3] it was above 100 µM; in test [4], 0.744 µM; in test [5], 0.302 µM; in test [6], 7.88 µM. Also, the TGI in test [7] turned out to be 0.659 µM; in test [8] it was 3.76 µM.
For the compound `CC(NC(=O)OC(C)(C)C)C(=O)C(N)=O` (configuration not stated), the TGI in test [1], in test [2], in test [3], in test [4], in test [5] and in test [6] was above 100 µM in each case. In addition, the TGI in test [7] and in test [8] was above 100 µM throughout.
Turning to `O=c1[nH]nc(Cc2ccc(Cl)cc2)n1/N=C\CC/C=N\n1c(Cc2ccc(Cl)cc2)n[nH]c1=O`, the TGI in test [1] was above 92.8 µM; in test [2] it was 36.5 µM; in test [3], above 66.3 µM; in test [4], above 100 µM; in test [5], 27.5 µM; in test [6] it was above 100 µM. In addition, the TGI in test [7] and in test [8] was above 100 µM throughout.
